The target in this assay is T1, PI3Kδ (Homo sapiens, UniProt O00329).
T1 construct: Full length p110 subunits of PI3k α, β and δ, N-terminally labeled with polyHis tag; polyHis (N); made in house; host or cells: Sf9 insect cells (baculovirus)
T1 sequence (O00329 whole entry): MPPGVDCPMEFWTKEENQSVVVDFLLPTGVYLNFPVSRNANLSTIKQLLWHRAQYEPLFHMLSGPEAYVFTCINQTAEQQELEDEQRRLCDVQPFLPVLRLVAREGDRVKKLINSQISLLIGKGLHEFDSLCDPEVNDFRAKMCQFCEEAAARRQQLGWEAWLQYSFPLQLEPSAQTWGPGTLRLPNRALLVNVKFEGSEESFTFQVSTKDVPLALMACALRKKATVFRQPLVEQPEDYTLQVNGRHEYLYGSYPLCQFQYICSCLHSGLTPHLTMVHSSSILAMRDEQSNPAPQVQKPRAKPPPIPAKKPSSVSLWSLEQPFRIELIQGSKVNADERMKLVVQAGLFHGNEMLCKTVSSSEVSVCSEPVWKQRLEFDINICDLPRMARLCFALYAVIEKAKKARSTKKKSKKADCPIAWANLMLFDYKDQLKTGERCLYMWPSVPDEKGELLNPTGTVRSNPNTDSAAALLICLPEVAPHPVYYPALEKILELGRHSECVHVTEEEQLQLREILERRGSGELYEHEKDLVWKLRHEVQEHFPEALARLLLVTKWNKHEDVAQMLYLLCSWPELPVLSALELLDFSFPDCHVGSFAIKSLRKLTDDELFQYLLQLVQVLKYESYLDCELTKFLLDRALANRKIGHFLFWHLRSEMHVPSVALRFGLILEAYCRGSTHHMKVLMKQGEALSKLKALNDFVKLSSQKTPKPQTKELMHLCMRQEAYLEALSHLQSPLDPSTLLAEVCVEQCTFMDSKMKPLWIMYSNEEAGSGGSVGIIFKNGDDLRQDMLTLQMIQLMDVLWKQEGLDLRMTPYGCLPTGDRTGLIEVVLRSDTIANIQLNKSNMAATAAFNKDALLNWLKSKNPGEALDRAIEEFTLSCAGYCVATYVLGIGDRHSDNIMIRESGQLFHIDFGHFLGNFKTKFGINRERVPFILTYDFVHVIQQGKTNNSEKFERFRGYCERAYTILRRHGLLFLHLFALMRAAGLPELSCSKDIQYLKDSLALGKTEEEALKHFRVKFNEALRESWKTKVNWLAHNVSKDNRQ
T1 sequence (P27986 whole entry partner): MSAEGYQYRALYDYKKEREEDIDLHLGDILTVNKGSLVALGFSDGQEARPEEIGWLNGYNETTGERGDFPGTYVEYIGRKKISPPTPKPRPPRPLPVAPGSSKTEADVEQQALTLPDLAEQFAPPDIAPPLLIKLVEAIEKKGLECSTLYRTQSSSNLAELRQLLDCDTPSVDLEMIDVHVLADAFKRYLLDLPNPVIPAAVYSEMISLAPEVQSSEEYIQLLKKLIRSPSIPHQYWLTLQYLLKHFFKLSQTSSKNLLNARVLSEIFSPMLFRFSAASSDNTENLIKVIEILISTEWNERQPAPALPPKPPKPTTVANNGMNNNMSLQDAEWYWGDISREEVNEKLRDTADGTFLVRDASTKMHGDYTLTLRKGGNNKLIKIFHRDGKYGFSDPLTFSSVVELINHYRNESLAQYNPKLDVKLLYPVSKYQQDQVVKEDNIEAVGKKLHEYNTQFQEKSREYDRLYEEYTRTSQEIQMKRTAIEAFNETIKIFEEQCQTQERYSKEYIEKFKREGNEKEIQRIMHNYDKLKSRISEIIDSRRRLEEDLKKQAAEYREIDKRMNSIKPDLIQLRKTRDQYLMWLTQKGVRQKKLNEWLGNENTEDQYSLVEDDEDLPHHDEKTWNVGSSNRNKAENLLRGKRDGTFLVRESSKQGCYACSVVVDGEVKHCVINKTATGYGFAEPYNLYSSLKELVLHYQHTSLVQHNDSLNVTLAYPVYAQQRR
Nature of the assay: PI3Kδ Alphascreen assay. The class given is biochemical. The method, then: Full length p110 subunits of PI3k α, β and δ, N-terminally labeled with polyHis tag, were coexpressed with p85 with Baculo virus expression vectors in sf9 insect cells. P110/p85 heterodimers were purified by sequential Ni-NTA, Q-HP, Superdex-100 chromatography. Purified α, β and δ isozymes were stored at −20° C. in 20 mM Tris, pH 8, 0.2M NaCl, 50% glycerol, 5 mM DTT, 2 mM Na cholate. […] The γ isozyme was purified by sequential Ni-NTA, Superdex-200, Q-HP chromatography. The γ isozyme was stored frozen at −80° C. in NaH2PO4, pH 8, 0.2M NaCl, 1% ethylene glycol, 2 mM β-mercaptoethanol.
A PI3K Alphascreen® assay (PerkinElmer, Waltham, Mass.) was used to measure the activity of a panel of four phosphoinositide 3-kinases: PI3Kα, PI3Kβ, PI3Kγ, and PI3Kδ. Enzyme reaction buffer was prepared using sterile water (Baxter, Deerfield, Ill.) and 50 mM Tris HCl pH 7, 14 mM MgCl2, 2 mM sodium cholate, and 100 mM NaCl. 2 mM DTT was added fresh the day of the experiment. The Alphascreen buffer was made using sterile water and 10 mM Tris HCl pH 7.5, 150 mM NaCl, 0.10% Tween 20, and 30 mM EDTA. 1 mM DTT was added fresh the day of the experiment. Compound source plates used for this assay were 384-well Greiner clear polypropylene plates containing test compounds at 5 mM and diluted 1:2 over 22 concentrations. Columns 23 and 24 contained only DMSO as these wells comprised the positive and negative controls, respectively. Source plates were replicated by transferring 0.5 uL per well into 384-well Optiplates (PerkinElmer, Waltham, Mass.).
Each PI3K isoform was diluted in enzyme reaction buffer to 2× working stocks. […] PI(4,5)P2 (Echelon Biosciences, Salt Lake City, Utah) was diluted to 10 μM and ATP was diluted to 20 μM. This 2× stock was used in the assays for PI3Kα and PI3Kβ. For assay of PI3Kγ and PI3Kδ, PI(4,5)P2 was diluted to 10 μM and ATP was diluted to 8 μM to prepare a similar 2× working stock. Alphascreen reaction solutions were made using beads from the anti-GST Alphascreen kit (PerkinElmer, Waltham, Mass.). Two 4× working stocks of the Alphascreen reagents were made in Alphascreen reaction buffer. In one stock, biotinylated-IP4 (Echelon Biosciences, Salt Lake City, Utah) was diluted to 40 nM and streptavidin-donor beads were diluted to 80 μg/mL. In the second stock, PIP3-binding protein (Echelon Biosciences, Salt Lake City, Utah) was diluted to 40 nM and anti-GST-acceptor beads were diluted to 80 μg/mL.
10 μL/well of the appropriate substrate 2× stock (containing 20 μM ATP for the PI3Kα and β assays and containing 8 μM ATP for the PI3Kγ and δ assays) was then added to Columns 1-24 of all plates. Plates were then incubated at room temperature for 20 minutes. In the dark, 10 μL/well of the donor bead solution was added to columns 1-24 of the plates to quench the enzyme reaction. The plates were incubated at room temperature for 30 minutes. Still in the dark, 10 μL/well of the acceptor bead solution was added to columns 1-24 of the plates. The plates were then incubated in the dark for 1.5 hours. The plates were read on an Envision multimode Plate Reader (PerkinElmer, Waltham, Mass.) using a 680 nm excitation filter and a 520-620 nm emission filter.
Background: In Alpha technology, singlet oxygen from a donor bead excites a nearby acceptor bead.
Regarding `N#Cc1c(N)ncnc1NCc1nc2cccc(F)c2cc1-c1ccccn1` [4-Amino-6-((5-fluoro-3-(pyridin-2-yl)quinolin-2-yl)methylamino)pyrimidine-5-carbonitrile], the affinity corresponds to a Ki of 137 nM.
Next, `N#Cc1c(N)ncnc1NCc1nc2cccc(F)c2cc1-c1ccccc1` [4-Amino-6-((5-fluoro-3-phenylquinolin-2-yl)methylamino)pyrimidine-5-carbonitrile]: 107 nM.
With `CS(=O)(=O)c1ccccc1-c1cc2cccc(F)c2nc1CNc1ncnc(N)c1C#N` [4-Amino-6-((8-fluoro-3-(2-(methylsulfonyl)phenyl)quinolin-2-yl)methylamino)-pyrimidine-5-carbonitrile] the figure was 30.7 nM; with `N#Cc1c(N)ncnc1NCc1nc2c(F)cccc2cc1-c1ccccn1` [4-Amino-6-((8-fluoro-3-(pyridin-2-yl)quinolin-2-yl)methyl-amino)pyrimidine-5-carbonitrile], 262 nM.
For the compound `N#Cc1c(N)ncnc1NCc1nc2c(F)cccc2cc1-c1ccccc1` [4-Amino-6-((8-fluoro-3-phenylquinolin-2-yl)methylamino)pyrimidine-5-carbonitrile], the Ki (usually the equilibrium dissociation constant of an inhibitor or competing ligand from its target) turned out to be 12.3 nM.
`COCCNc1c(-c2ccccc2)c([C@@H](C)Nc2ncnc(N)c2C#N)nc2ccc(F)cc12` [4-Amino-6-(((1R)-1-(6-fluoro-4-((2-methoxyethyl)amino)-3-phenyl-2-quinolinyl)ethyl)amino)-5-pyrimidinecarbonitrile] gave a Ki of 62.2 nM.
With `C[C@H](Nc1ncnc(N)c1C#N)c1nc2cccc(Cl)c2cc1-c1ccccn1` [4-Amino-6-(((1S)-1-(5-chloro-3-(2-pyridinyl)-2-quinolinyl)ethyl)amino)-5-pyrimidinecarbonitrile] the figure was 0.4 nM; with `C[C@H](Nc1ncnc(N)c1C#N)c1nc2ccc(F)cc2c(NCCS(C)(=O)=O)c1-c1ccccc1` [4-Amino-6-(((1S)-1-(6-fluoro-4-((2-(methylsulfonyl)ethyl)amino)-3-phenyl-2-quinolinyl)ethyl)amino)-5-pyrimidinecarbonitrile], 0.226 nM; with `COCCNc1c(-c2ccccc2)c([C@H](C)Nc2ncnc(N)c2C#N)nc2ccc(F)cc12` [4-Amino-6-(((1S)-1-(6-fluoro-4-((2-methoxyethyl)amino)-3-phenyl-2-quinolinyl)ethyl)amino)-5-pyrimidinecarbonitrile], 0.61 nM.
As to `CC(Nc1ncnc(N)c1C#N)c1nc2ccc(F)cc2c(C(=O)N2CCOCC2)c1-c1ccccc1` (centres unmarked) [4-Amino-6-((-1-(6-fluoro-4-(4-morpholinylcarbonyl)-3-phenyl-2-quinolinyl)-ethyl)amino)-5-pyrimidinecarbonitrile], the affinity corresponds to a Ki of 2.88 nM.
With `CC(Nc1ncnc(N)c1C#N)c1nc2ccc(F)cc2c(C(=O)N2CC[C@H](O)C2)c1-c1ccccc1` (stereo partly drawn) [4-Amino-6-((-1-(6-fluoro-4-(((3S)-3-hydroxy-1-pyrrolidinyl)carbonyl)-3-phenyl-2-quinolinyl)ethyl)amino)-5-pyrimidinecarbonitrile] the figure was 1.02 nM; with `C[C@H](c1nc2ccc(F)cc2cc1-c1cncc(F)c1)n1nc(C#N)c2c(N)ncnc21` [4-amino-1-((R)-1-(6-fluoro-3-(5-fluoropyridin-3-yl)quinolin-2-yl)ethyl)-1H-pyrazolo[3,4-d]pyrimidine-3-carbonitrile], 5470 nM.
`CC(Nc1ncnc(N)c1C#N)c1nc2ccc(F)cc2c(N(C)C)c1-c1ccccn1` (centres unmarked) [4-amino-6-(1-(4-(dimethylamino)-6-fluoro-3-(pyridin-2-yl)quinolin-2-yl)ethylamino)pyrimidine-5-carbonitrile]: affinity was put at a Ki of 1.4 nM.
With `CC(Nc1ncnc(N)c1C#N)c1nc2ccc(F)cc2c([S@@+]([O-])CCO)c1-c1ccccc1` (stereo partly drawn) [4-amino-6-(1-(6-fluoro-4-((S)-2-hydroxyethylsulfinyl)-3-phenylquinolin-2-yl)ethylamino)pyrimidine-5-carbonitrile] the figure was 1.8 nM; with `CC(Nc1ncnc(N)c1C#N)c1nc2ccc(F)cc2c(CO)c1-c1ccccc1` (centres unmarked) [4-amino-6-(1-(6-fluoro-4-(hydroxymethyl)-3-phenylquinolin-2-yl)ethylamino)pyrimidine-5-carbonitrile], 1.68 nM.
Next, `CC(Nc1ncnc(N)c1C#N)c1nc2ccc(F)cc2c(S(C)(=O)=O)c1-c1ccccc1` (centres unmarked) [4-amino-6-(1-(6-fluoro-4-(methylsulfonyl)-3-phenylquinolin-2-yl)ethylamino)pyrimidine-5-carbonitrile]: 1.3 nM; `CC(Nc1ncnc(N)c1C#N)c1nc2ccc(F)cc2c(N2CCOCC2)c1-c1ccccn1` (centres unmarked) [4-amino-6-(1-(6-fluoro-4-morpholino-3-(pyridin-2-yl)quinolin-2-yl)ethyl-amino)pyrimidine-5-carbonitrile]: 1.19 nM; `CSc1c(-c2ccccc2)c(C(C)Nc2ncnc(N)c2C#N)nc2ccc(F)cc12` (centres unmarked) [4-amino-6-((1-(6-fluoro-4-(methylsulfanyl)-3-phenyl-2-quinolinyl)ethyl)amino)-5-pyrimidinecarbonitrile]: 2.4 nM.
Next, `C[C@@H](Nc1ncnc(N)c1C#N)c1nc2cccc(Cl)c2cc1-c1ccccn1` [4-amino-6-(((1R)-1-(5-chloro-3-(2-pyridinyl)-2-quinolinyl)ethyl)amino)-5-pyrimidinecarbonitrile]: 57.9 nM; `C[C@@H](Nc1ncnc(N)c1C#N)c1nc2cccc(F)c2c(S(C)(=O)=O)c1-c1ccccc1` [4-amino-6-(((1R)-1-(5-fluoro-4-(methylsulfonyl)-3-phenyl-2-quinolinyl)ethyl)amino)-5-pyrimidinecarbonitrile]: 466 nM; `C[C@H](Nc1ncnc(N)c1C#N)c1nc2ccc(F)cc2c(C(=O)N2CCOCC2)c1-c1ccccc1` [4-amino-6-(((1S)-1-(6-fluoro-4-(4-morpholinylcarbonyl)-3-phenyl-2-quinolinyl)ethyl)amino)-5-pyrimidinecarbonitrile]: 0.505 nM.
For the compound `C[C@H](Nc1ncnc(N)c1C#N)c1nc2ccc(F)cc2c(C(=O)N2CC[C@H](O)C2)c1-c1ccccc1` [4-amino-6-(((1S)-1-(6-fluoro-4-(((3S)-3-hydroxy-1-pyrrolidinyl)carbonyl)-3-phenyl-2-quinolinyl)ethyl)amino)-5-pyrimidinecarbonitrile], the affinity corresponds to a Ki of 0.657 nM.
With `C[C@H](Nc1ncnc(N)c1C#N)c1nc2ccc(F)cc2c(S(C)(=O)=O)c1-c1ccccc1` [4-amino-6-(((1S)-1-(6-fluoro-4-(methylsulfonyl)-3-phenyl-2-quinolinyl)ethyl)amino)-5-pyrimidinecarbonitrile] the figure was 0.741 nM; with `CC(Nc1ncnc(N)c1C#N)c1nc2cccc(Cl)c2cc1-c1ccccn1` [4-amino-6-(((1S, 1R)-1-(5-chloro-3-(2-pyridinyl)-2-quinolinyl)ethyl)-amino)-5-pyrimidinecarbonitrile], 1.6 nM; with `CC(Nc1ncnc(N)c1C#N)c1nc2ccc(F)cc2c(CN2CCOCC2)c1-c1ccccc1` (centres unmarked) [4-amino-6-((-1-(6-fluoro-4-(4-morpholinylmethyl)-3-phenyl-2-quinolinyl)ethyl)amino)-5-pyrimidinecarbonitrile], 1.31 nM.
Turning to `C[C@H](c1nc2ccc(F)cc2cc1-c1ccccn1)n1nc(C#N)c2c(N)ncnc21` [(R)-4-amino-1-(1-(6-fluoro-3-(pyridin-2-yl)quinolin-2-yl)ethyl)-1H-pyrazolo[3,4-d]pyrimidine-3-carbonitrile], affinity was put at a Ki of 320 nM.
